The numbers were not newly measured in US20210009750A1, “3D PRINTING COMPOSITION FOR BIOMATERIALS” (TISSIUM SA, priority 2018, published 2021), which cites them from elsewhere.

The structures appear in SMILES notation.

The subject of this data set is mammalian cell types. Particulars: broad range of mammalian cell types and species.

As for `CC(C)(O)C(=O)c1ccc(OCCO)cc1` [Irgacure 2959, 2-hydroxy-1-[4-(hydroxyethoxy)phenyl]-2-methyl-1-propanone], the “cytotoxicity (cell death)” value is reported as “minimal cytotoxicity”.
